Assay results taken from patent publication US20250042889A1, “3CLPRO PROTEASE INHIBITOR” (SHANGHAI QILU PHARMACEUTICAL RESEARCH AND DEVELOPMENT …, priority 2021, published 2025).

Molecular target: SARS-COV-2 3CLpro/Mpro protease (Severe acute respiratory syndrome coronavirus 2 (2019-nCoV) (SARS-CoV-2), UniProt P0DTD1)
Test: Inhibitory effect on SARS-COV-2 3CLpro/Mpro protease by fluorescence resonance energy transfer
Type: biochemical
Details: activity intervals A-D, read-out: IC50 (nM), Inhibition on SARS-CoV-2 3CLpro/Mpro protease

SMILES | IC50 [nM]
CNc1cncc(C(=O)N2C[C@H](Nc3c(C(=O)N4C[C@@H](C)O[C@@H](C)C4)cc(Br)cc3[N+](=O)[O-])C[C@H]2C(=O)Nc2nn(CC(F)(F)F)cc2Br)c1 [Example 417] | 50 to 100
CNc1cncc(C(=O)N2C[C@H](Nc3c(C(=O)N4C[C@@H](C)O[C@@H](C)C4)cc(Br)cc3[N+](=O)[O-])C[C@H]2C(=O)Nc2nn(CCOC)cc2Br)c1 [Example 418, (2S,4R)-4-((4-bromo-2-((2R,6S)-2,6-dimethylmorpholin-4-carbonyl)-6-nitrophenyl)amino)-1-(5-(methylamino)nicotinoyl)-N-(4-bromo-1-(2-methoxyethyl)-1H-pyrazol-3-yl) pyrrolidine-2-formamide] | 50 to 100
CNc1cncc(C(=O)N2C[C@H](Nc3c(C(=O)N4C[C@@H](C)O[C@@H](C)C4)cc(Br)cc3[N+](=O)[O-])C[C@H]2C(=O)NCc2ccnc(C(F)(F)F)c2)c1 [Example 419] | 50 to 100
CNc1cncc(C(=O)N2C[C@H](Nc3c(C(=O)N4C[C@@H](C)O[C@@H](C)C4)cc(Br)cc3[N+](=O)[O-])C[C@H]2C(=O)Nc2nn(C3CC3)cc2Br)c1 [Example 420] | 50 to 100
CNc1cncc(C(=O)N2C[C@H](Nc3c(C(=O)N4C[C@@H](C)O[C@@H](C)C4)cc(Br)cc3[N+](=O)[O-])C[C@H]2C(=O)N[C@@H]2COC(=O)C2)c1 [Example 421] | 100 to 200
CO[C@H]1CN(C(=O)c2cncc3[nH]ccc23)C[C@@H]1Nc1c(C(=O)N2C[C@@H](C)O[C@@H](C)C2)cc(Br)cc1[N+](=O)[O-] [Example 423] | 10 to 50
CNc1cncc(C(=O)N2C[C@H](Nc3c(C(=O)N4C[C@@H](C)O[C@@H](C)C4)cc(Br)cc3[N+](=O)[O-])C[C@H]2C(=O)Nc2nn(-c3cccnc3)cc2Br)c1 [Example 424] | 50 to 100
CNc1cncc(C(=O)N2C[C@H](Nc3c(C(=O)N4C[C@@H](C)O[C@@H](C)C4)cc(Br)cc3[N+](=O)[O-])C[C@H]2C(=O)Nc2ccc3nn(C)cc3c2Cl)c1 [Example 425] | 100 to 200
CNc1cncc(C(=O)N2C[C@H](Nc3c(C(=O)N4C[C@@H](C)O[C@@H](C)C4)cc(Br)cc3[N+](=O)[O-])C[C@H]2C(=O)NCc2ccnc(F)c2)c1 [Example 426] | 100 to 200
CNc1cncc(C(=O)N2C[C@H](Nc3c(C(=O)N4C[C@@H](C)O[C@@H](C)C4)cc(Br)cc3[N+](=O)[O-])C[C@H]2C(=O)Nc2ccnc(C(F)(F)F)c2)c1 [Example 427, (2S,4R)-4-((4-bromo-2-((2R,6S)-2,6-dimethylmorpholin-4-carbonyl)-6-nitrophenyl)amino)-1-(5-(methylamino)nicotinoyl)-N-(2-(trifluoromethyl)pyridin-4-yl) pyrrolidine-2-formamide] | 100 to 200
CNc1cncc(C(=O)N2C[C@H](Nc3c(C(=O)N4C[C@@H](C)O[C@@H](C)C4)cc(Br)cc3[N+](=O)[O-])C[C@H]2C(=O)Nc2ccnc(C(F)(F)F)n2)c1 [Example 428] | 50 to 100
CNc1cncc(C(=O)N2C[C@H](Nc3c(C(=O)N4C[C@@H](C)O[C@@H](C)C4)cc(Br)cc3[N+](=O)[O-])C[C@H]2C(=O)Nc2cc3nn(C)cc3cc2Cl)c1 [Example 429] | 100 to 200
CNc1cncc(C(=O)N2C[C@H](Nc3c(C(=O)N4C[C@@H](C)O[C@@H](C)C4)cc(Br)cc3[N+](=O)[O-])C[C@H]2C(=O)NCc2ccnc(NC)c2)c1 [Example 430] | 100 to 200
CNc1cncc(C(=O)N2C[C@H](Nc3c(C(=O)N4C[C@@H](C)O[C@@H](C)C4)cc(Br)cc3[N+](=O)[O-])C[C@H]2C(=O)NCc2ccnc(C(F)F)c2)c1 [Example 431] | 50 to 100
CNc1cncc(C(=O)N2C[C@H](Nc3c(C(=O)N4C[C@@H](C)O[C@@H](C)C4)cc(Br)cc3[N+](=O)[O-])C[C@H]2C(=O)NC2C[C@@H](C)O[C@@H](C)C2)c1 (stereo partly shown) [Example 433] | 100 to 200
CNc1cncc(C(=O)N2C[C@H](Nc3c(C(=O)N4C[C@@H](C)O[C@@H](C)C4)cc(Br)cc3[N+](=O)[O-])C[C@H]2C(=O)N[C@H]2CC[C@@H](OC)C2)c1 [Example 434, (2S,4R)-4-((4-bromo-2-((2R,6S)-2,6-dimethylmorpholin-4-carbonyl)-6-nitrophenyl)amino)-N-((1S,3R)-3-methoxycyclopentyl)-1-(5-(methylamino)nicotinoyl) pyrrolidine-2-formamide] | 100 to 200
CNc1cncc(C(=O)N2C[C@H](Nc3c(C(=O)N4C[C@@H](C)O[C@@H](C)C4)cc(Br)cc3[N+](=O)[O-])C[C@H]2C(=O)Nc2ccc3c(cnn3C)c2Cl)c1 [Example 435] | 50 to 100
CNc1cncc(C(=O)N2C[C@H](Nc3c(C(=O)N4C[C@@H](C)O[C@@H](C)C4)cc(Br)cc3[N+](=O)[O-])C[C@H]2C(=O)Nc2cc(C(F)(F)F)ncn2)c1 [Example 436, (2S,4R)-4-((4-bromo-2-((2R,6S)-2,6-dimethylmorpholin-4-carbonyl)-6-nitrophenyl)amino)-1-(5-(methylamino)nicotinoyl)-N-(6-(trifluoromethyl)pyrimidin-4-yl) pyrrolidine-2-formamide] | 50 to 100
CNc1cncc(C(=O)N2C[C@H](Nc3c(C(=O)N4C[C@@H](C)O[C@@H](C)C4)cc(Br)cc3[N+](=O)[O-])C[C@H]2C(=O)N[C@H]2CC(=O)N(C)C2)c1 [Example 437] | 50 to 100
CNc1cncc(C(=O)N2C[C@H](Nc3c(C(=O)N4C[C@@H](C)O[C@@H](C)C4)cc(Br)cc3[N+](=O)[O-])C[C@H]2C(=O)Nc2nn(C3C[C@@H](C)O[C@@H](C)C3)cc2Br)c1 (stereo partly shown) [Example 438] | 10 to 50
CO[C@H]1CN(C(=O)c2cncc3[nH]nc(C)c23)C[C@@H]1Nc1c(C(=O)N2C[C@@H](C)O[C@@H](C)C2)cc(Br)cc1[N+](=O)[O-] [Example 439, (5-Bromo-2-(((3S,4S)-4-methoxy-1-(3-methyl-1H-pyrazolo[3,4-c]pyridin-4-carbonyl)pyrrolidin-3-yl)amino)-3-nitrophenyl)((2S,6R)-2,6-dimethylmorpholinyl)methanone] | 10 to 50
CNc1cncc(C(=O)N2C[C@H](Nc3c(-c4nnn(C)n4)cc(Br)cc3[N+](=O)[O-])[C@@H](OC)C2)c1 [Example 440, ((3S,4S)-3-((4-bromo-2-(2-methyl-2H-tetrazol-5-yl)-6-nitrophenyl)amino)-4-methoxypyrrolidin-1-yl)(5-(methylamino)pyridin-3-yl)methanone] | 50 to 100
CNc1cncc(C(=O)N2C[C@H](Nc3c(C(=O)N4C[C@@H](C)O[C@@H](C)C4)cc(Br)cc3[N+](=O)[O-])C[C@H]2C(=O)Nc2cc(Cl)ncn2)c1 [Example 441, (2S,4R)-4-((4-bromo-2-((2R,6S)-2,6-dimethylmorpholin-4-carbonyl)-6-nitrophenyl)amino)-N-(6-chloropyrimidin-4-yl)-1-(5-(methylamino)nicotinoyl) pyrrolidine-2-formamide] | 10 to 50
CNc1cncc(C(=O)N2C[C@H](Nc3c(C(=O)N4C[C@@H](C)O[C@@H](C)C4)cc(Br)cc3[N+](=O)[O-])C[C@H]2C(=O)Nc2ccnc(Cl)n2)c1 [Example 442, (2S,4R)-4-((4-bromo-2-((2R,6S)-2,6-dimethylmorpholin-4-carbonyl)-6-nitrophenyl)amino)-N-(2-chloropyrimidin-4-yl)-1-(5-(methylamino)nicotinoyl) pyrrolidine-2-formamide] | 10 to 50
[2H]C([2H])([2H])Nc1cncc(C(=O)N2C[C@H](Nc3c(C(=O)N4C[C@@H](C)O[C@@H](C)C4)cc(Br)cc3[N+](=O)[O-])[C@@H](OC)C2)c1 [Example 443] | 10 to 50
